Source: US12371464B2, “Polypeptides and uses thereof” (MEDIMMUNE LIMITED, priority 2020, dated 2025)
Numbered stars: 1 amine (or outer) side, 2 acyl side, 3 side chain; on linkers, the order of the positions; unused ones are H or OH. Bridge positions count the residues as written; N and C are the ends. Square brackets hold non-standard residues; d marks the D form. Side chains are listed from the residue outwards. Peptide text beside a SMILES is read from it. * marks the point of attachment. C20 diacid = O=C(O)CCCCCCCCCCCCCCCCCCC(=O)*; C18 diacid = O=C(O)CCCCCCCCCCCCCCCCC(=O)*; γGlu = O=C(O)[C@H](CCC(=O)[*:2])N[*:1]; αMeF = C[C@](N)(Cc1ccccc1)C(=O)O; Dab = NCC[C@H](N)C(=O)O; Aib = CC(C)(N)C(=O)O

What was measured:
[1] = target: T1, human amylin receptor (calcitonin receptor co-expressed with receptor activity modifying protein, RAMP3) (hAMYR3) (Homo sapiens, UniProt O60896+P30988); assay: cAMP production in 1321N1 cells with stable recombinant expression of human amylin receptor (hAMYR3); format: cell-based
T1 construct: expressed in transfected cells
T1 sequence (P30988 25-474): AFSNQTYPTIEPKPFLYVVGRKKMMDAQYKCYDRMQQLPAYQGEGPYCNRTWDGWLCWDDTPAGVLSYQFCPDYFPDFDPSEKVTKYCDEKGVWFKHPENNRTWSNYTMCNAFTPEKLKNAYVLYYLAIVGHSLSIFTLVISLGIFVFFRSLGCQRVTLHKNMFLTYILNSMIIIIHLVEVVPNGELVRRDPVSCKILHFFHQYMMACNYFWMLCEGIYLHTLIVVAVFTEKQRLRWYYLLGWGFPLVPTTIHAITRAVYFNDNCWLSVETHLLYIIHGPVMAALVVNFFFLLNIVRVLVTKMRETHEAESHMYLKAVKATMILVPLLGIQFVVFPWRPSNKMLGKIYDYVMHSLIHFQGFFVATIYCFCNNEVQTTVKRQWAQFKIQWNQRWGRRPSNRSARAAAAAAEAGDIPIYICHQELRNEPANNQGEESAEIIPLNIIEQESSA
T1 sequence (O60896 24-148 partner): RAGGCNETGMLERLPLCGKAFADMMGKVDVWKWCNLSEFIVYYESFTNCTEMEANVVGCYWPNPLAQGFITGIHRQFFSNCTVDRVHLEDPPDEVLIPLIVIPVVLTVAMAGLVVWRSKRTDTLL
Procedure: (§1) The functional activities of lipidated pramlintide analogue peptides, such as cAMP production, were tested in 1321N1 cell line with stable recombinant expression of human calcitonin receptor (hCTR) or human amylin receptor (calcitonin receptor co-expressed with receptor activity modifying protein, RAMP3) (hAMYR3) or HEK cells with stable recombinant expression of rat calcitonin receptor (rat CTR) or rat amylin receptor (calcitonin receptor co-expressed with receptor activity modifying protein, RAMP3) (Rat AMYR3).
(§2) Cryopreserved cell stock was thawed rapidly in a water-bath, suspended in assay buffer (0.1% BSA (Sigma #A3059) in HBSS (Sigma #H8264) with 25 mM HEPES, pH 7.4 and containing 0.5 mM IB MX (Sigma #17018)) and spun at 240×g for 5 minutes. Cells were re-suspended in assay buffer at a batch-dependent optimized concentration (e.g. hCTR cells at 0.125×10^5 cells/mL, hAMYR3 cells at 0.125×10^5 cells/mL, rat CTR cells at 1×10^5 cells/mL, rat AMYR3 at 2×10^5 cells/mL).
(§3) The test peptide stock was prepared in DMSO and diluted in assay buffer to reach stated concentrations and transferred in duplicates into a 384-black shallow well microtitre assay plate (Corning #3676). Cells were added to the assay plate, incubated at room temperature for 30 minutes and the CAMP level measured using CAMP dynamic 2 HTRF kit (Cisbio, Cat #62AM4PEJ), following the two step protocol as per manufacturer's recommendations. The plates were read on an Envision (Perkin Elmer) using excitation wavelength of 320 nm and emission wavelengths of 620 nm & 665 nm.
(§4) Data was transformed to % Delta F as described in the manufacturer's guidelines and analyzed as percent activation of maximal amylin or calcitonin effect by 4-parameter logistic fit to determine EC50 values. The selectivity of a peptide to hAMYR vs hCTR is defined as a ratio of EC50 values at the two receptors.

[2] = target: T2, human calcitonin receptor (hCTR) (Homo sapiens, UniProt P30988); assay: cAMP production in 1321N1 cells with stable recombinant expression of human calcitonin receptor (hCTR); format: cell-based; settings: 1321N1 cells expressing human calcitonin receptor
T2 construct: expressed in transfected cells
T2 sequence (P30988 25-474): T1 sequence (P30988 25-474)
Procedure: as §1, §2, §3, §4

[3] = Thioflavin T fibrillation assay; format: physicochemical; settings: 1 mg/mL in 25 mM sodium acetate buffer pH 4.0, 37° C., 6 days, orbital shaking; >144 h = no increase
Method in brief: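 Peptides at 1 mg/mL in 25 mM sodium acetate pH 4.0 were mixed with ThT (0.25 mM stock) and held 6 days at 37 °C with intermittent orbital shaking at 500–750 rpm. Fluorescence (ex 444/em 480 nm) was read every 30 min, with buffer baseline correction and 5 replicates. Value: mean time to a detectable fluorescence increase.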

lean rats = assay: Rat acute food intake study; format: in vivo, Sprague Dawley rats; settings: 20 nmol/kg subcutaneously, at 48 h
Procedure: Male Sprague Dawley rats were obtained from Taconic Denmark, ApS at approximately 7 weeks of age. . . . Rats were implanted with a microchip for identification, housed 4/cage with enrichment, free access to food and water, and allowed one week acclimatisation while non-invasive characterization was performed. Rats were on a 12:12 light:dark cycle that switches at 1 pm:1 am. Food intake was monitored via the HM2 system (Lafayette Instrument) that allows for monitoring in a home cage. As each rat enters an access tunnel to feed, an IR beam is broken, and the implanted microchip is read. Resulting changes to food weight is then assigned to the specific animal. Social order has shown no impact to overall feeding patterns and amounts.
Rats were sorted into groups based on Day-1 body weight and 24-hour accumulated food intake (n=7 per group). On Day 0 rats were weighed, then fasted for 6 hours. Thirty (30) minutes prior to the reintroduction of food, rats were dosed subcutaneously (5 ml/kg) with 20 nmol/kg of test compound or 60 nmol/kg peptide 1 (pramlintide) diluted in an appropriate vehicle, after which food was returned, and lights went out. Automated food intake was monitored for the following 3 days, and rats were weighed once per day.
Food intake per rat was batched into 1-hour intervals and integrated into Gubra's GubraView data management system. Discrete food intake data was exported into MS Excel from which cumulative food intake data was generated. Cumulative food intake data was then transposed into GraphPad Prism (v8.0.1) for analysis of dark period feeding

In the case of CC[C@H](C)[C@H](NC(=O)[C@@H]1CCCN1C(=O)CNC(=O)[C@H](Cc1ccccc1)NC(=O)[C@H](CC(N)=O)NC(=O)C(C)(C)NC(=O)[C@H](CO)NC(=O)[C@H](CO)NC(=O)[C@H](Cc1c[nH]cn1)NC(=O)[C@@H](NC(=O)[C@H](CC(C)C)NC(=O)[C@H](Cc1ccccc1)NC(=O)[C@H](CC(N)=O)NC(=O)[C@H](C)NC(=O)[C@H](CC(C)C)NC(=O)[C@H](CCCNC(=N)N)NC(=O)[C@H](CCC(N)=O)NC(=O)[C@@H](NC(=O)[C@H](C)NC(=O)[C@@H]1CSSC[C@H](NC(=O)[C@@H](N)CCCCNC(=O)CC[C@H](NC(=O)CC[C@H](NC(=O)CCCCCCCCCCCCCCCCC(=O)O)C(=O)O)C(=O)O)C(=O)N[C@@H](CC(N)=O)C(=O)N[C@@H]([C@@H](C)O)C(=O)N[C@@H](C)C(=O)N[C@@H]([C@@H](C)O)C(=O)N1)[C@@H](C)O)C(C)C)C(=O)N[C@@H](CC(C)C)C(=O)N1CCC[C@H]1C(=O)N1CCC[C@H]1C(=O)N[C@H](C(=O)NC(C)(C)C(=O)N[C@H](C(=O)NCC(=O)N[C@@H](CO)C(=O)N[C@@H](CC(N)=O)C(=O)N[C@H](C(=O)N[C@@H](Cc1ccc(O)cc1)C(N)=O)[C@@H](C)O)C(C)C)[C@@H](C)O [Peptide 89, K(γE-γE-C18diacid)[CNTATC]ATQRLANFLVHSS(Aib)NFGPILPPT(Aib)VGSNTY-amide] (H-K([γGlu-γGlu-C18 diacid])CNTATCATQRLANFLVHSS[Aib]NFGPILPPT[Aib]VGSNTY-NH2; disulfide 2-7; N-terminus assumed), the “Ratio (selectivity hAMYR vs hCTR, ratio of EC50 values at the two receptors)” value ([1]; EC50 hCTR / EC50 hAMYR3) is reported as 18.

CC[C@H](C)[C@H](NC(=O)[C@@H]1CCCN1C(=O)CNC(=O)[C@](C)(Cc1ccccc1)NC(=O)[C@H](CC(N)=O)NC(=O)[C@H](CC(N)=O)NC(=O)[C@H](CO)NC(=O)[C@H](CO)NC(=O)[C@H](Cc1c[nH]cn1)NC(=O)[C@H](CCCNC(=N)N)NC(=O)[C@H](CC(C)C)NC(=O)[C@H](Cc1ccccc1)NC(=O)[C@H](CC(N)=O)NC(=O)[C@H](C)NC(=O)[C@H](CC(C)C)NC(=O)[C@H](CCCNC(=N)N)NC(=O)[C@H](CCC(N)=O)NC(=O)[C@@H](NC(=O)[C@H](C)NC(=O)[C@@H]1CSSC[C@H](NC(=O)[C@@H](N)CCCCNC(=O)CC[C@H](NC(=O)CCCCCCCCCCCCCCCCC(=O)O)C(=O)O)C(=O)N[C@@H](CC(N)=O)C(=O)N[C@@H]([C@@H](C)O)C(=O)N[C@@H](C)C(=O)N[C@@H]([C@@H](C)O)C(=O)N1)[C@@H](C)O)C(=O)N[C@@H](CC(C)C)C(=O)N1CCC[C@H]1C(=O)N1CCC[C@H]1C(=O)N[C@H](C(=O)N[C@@H](CCC(=O)O)C(=O)N[C@H](C(=O)NCC(=O)N[C@@H](CO)C(=O)N[C@@H](CC(N)=O)C(=O)N[C@H](C(=O)N[C@@H](Cc1ccc(O)cc1)C(N)=O)[C@@H](C)O)C(C)C)[C@@H](C)O [Peptide 16, K(γE-C18diacid)[CNTATC]ATQRLANFLRHSSNN(αMePhe)GPILPPTEVGSNTY-amide] (H-K([γGlu-C18 diacid])CNTATCATQRLANFLRHSSNN[αMeF]GPILPPTEVGSNTY-NH2; disulfide 2-7; N-terminus assumed) gave an EC50 [2] of 2.02 nM.

Work on CC[C@H](C)[C@H](NC(=O)[C@H](C)NC(=O)[C@@H]1CCCN1C(=O)[C@H](Cc1ccccc1)NC(=O)[C@H](CC(N)=O)NC(=O)C(C)(C)NC(=O)[C@H](CO)NC(=O)[C@H](CO)NC(=O)[C@H](Cc1c[nH]cn1)NC(=O)[C@@H](NC(=O)[C@H](CC(C)C)NC(=O)[C@H](Cc1ccccc1)NC(=O)[C@H](CC(N)=O)NC(=O)[C@H](C)NC(=O)[C@H](CC(C)C)NC(=O)[C@H](CCCNC(=N)N)NC(=O)[C@H](CCC(N)=O)NC(=O)[C@@H](NC(=O)[C@H](C)NC(=O)[C@@H]1CSSC[C@H](NC(=O)[C@@H](N)CCCCNC(=O)CC[C@H](NC(=O)CC[C@H](NC(=O)CCCCCCCCCCCCCCCCCCC(=O)O)C(=O)O)C(=O)O)C(=O)N[C@@H](CC(N)=O)C(=O)N[C@@H]([C@@H](C)O)C(=O)N[C@@H](C)C(=O)N[C@@H]([C@@H](C)O)C(=O)N1)[C@@H](C)O)C(C)C)C(=O)N[C@@H](CC(C)C)C(=O)N[C@@H](CO)C(=O)N1CCC[C@H]1C(=O)N[C@H](C(=O)N[C@@H](CC(N)=O)C(=O)N[C@H](C(=O)NCC(=O)N[C@@H](CO)C(=O)N[C@@H](CCN)C(=O)N[C@H](C(=O)N[C@@H](Cc1ccc(O)cc1)C(N)=O)[C@@H](C)O)C(C)C)[C@@H](C)O [Peptide 125, K(γE-γE-C20diacid)[CNTATC]ATQRLANFLVHSS(Aib)NFPAILSPTNVGS(Dab)TY-amide] (H-K([γGlu-γGlu-C20 diacid])CNTATCATQRLANFLVHSS[Aib]NFPAILSPTNVGS[Dab]TY-NH2; disulfide 2-7 (inferred)) yielded an EC50 ([1]; cAMP production, 1321N1 cells expressing human amylin3 receptor) of 1.2 nM.

With CC[C@H](C)[C@H](NC(=O)[C@@H]1CCCN1C(=O)CNC(=O)[C@](C)(Cc1ccccc1)NC(=O)[C@H](CC(N)=O)NC(=O)[C@H](CC(N)=O)NC(=O)[C@H](CO)NC(=O)[C@H](CO)NC(=O)[C@H](Cc1c[nH]cn1)NC(=O)[C@H](CCCNC(=N)N)NC(=O)[C@H](CC(C)C)NC(=O)[C@H](Cc1ccccc1)NC(=O)[C@H](CC(N)=O)NC(=O)[C@H](C)NC(=O)[C@H](CC(C)C)NC(=O)[C@H](CCCNC(=N)N)NC(=O)[C@H](CCC(N)=O)NC(=O)[C@@H](NC(=O)[C@H](C)NC(=O)[C@@H]1CSSC[C@H](NC(=O)[C@H](CCCCN)NC(=O)[C@@H](N)CCCCNC(=O)CC[C@H](NC(=O)CCCCCCCCCCCCCCCCC(=O)O)C(=O)O)C(=O)N[C@@H](CC(N)=O)C(=O)N[C@@H]([C@@H](C)O)C(=O)N[C@@H](C)C(=O)N[C@@H]([C@@H](C)O)C(=O)N1)[C@@H](C)O)C(=O)N[C@@H](CC(C)C)C(=O)N1CCC[C@H]1C(=O)N1CCC[C@H]1C(=O)N[C@H](C(=O)N[C@@H](CCC(=O)O)C(=O)N[C@H](C(=O)NCC(=O)N[C@@H](CO)C(=O)N[C@@H](CC(N)=O)C(=O)N[C@H](C(=O)N[C@@H](Cc1ccc(O)cc1)C(N)=O)[C@@H](C)O)C(C)C)[C@@H](C)O [Peptide 15, K(γE-C18diacid)K[CNTATC]ATQRLANFLRHSSNN(αMePhe)GPILPPTEVGSNTY-amide] (H-K([γGlu-C18 diacid])KCNTATCATQRLANFLRHSSNN[αMeF]GPILPPTEVGSNTY-NH2; disulfide 3-8; N-terminus assumed) the “Time taken to detect increase in fluorescence intensity” value [3] was over 144 h and the “Cummulative food intake (% vehicle treated intake) At 48 h” value (lean rats) was 51 % vehicle treated intake.
